Tests used:
Format in all cases: binding
Parameters in all cases: KINOMEscan: ABL1(F317L)-phosphorylated / KINOMEscan: ABL1(H396P)-nonphosphorylated / KINOMEscan: ABL1(H396P)-phosphorylated / KINOMEscan: ABL1(M351T)-phosphorylated / KINOMEscan: ABL1(T315I)-phosphorylated / KINOMEscan: ABL1-nonphosphorylated / KINOMEscan: ABL1-phosphorylated / KINOMEscan: ACVR2A / KINOMEscan: ACVR2B / KINOMEscan: ADCK3 / KINOMEscan: ADCK4 / KINOMEscan: AKT1 / KINOMEscan: AKT3 / KINOMEscan: ALK / KINOMEscan: ARK5 / KINOMEscan: AURKA / KINOMEscan: AURKC / KINOMEscan: BIKE / KINOMEscan: BMPR1A / KINOMEscan: BMPR1B / KINOMEscan: BMX / KINOMEscan: BRK / KINOMEscan: BRSK1 / KINOMEscan: BRSK2 / KINOMEscan: CAMK1 / KINOMEscan: CAMK1D / KINOMEscan: CAMK1G / KINOMEscan: CAMK2A / KINOMEscan: CAMK2B / KINOMEscan: AAK1 / KINOMEscan: CAMK2D / KINOMEscan: CAMK2G / KINOMEscan: ABL1(F317I)-nonphosphorylated / KINOMEscan: ABL1(F317I)-phosphorylated / KINOMEscan: ABL1(F317L)-nonphosphorylated: unit: % Ctrl
Conditions in all cases: Compound Concentration 10 µM
panel of 442 kinases [1] = target: T1, panel of 442 kinases (Homo sapiens, UniProt P15056)
T1 construct: purchased KINOMEscan
T1 sequence (P15056 whole entry): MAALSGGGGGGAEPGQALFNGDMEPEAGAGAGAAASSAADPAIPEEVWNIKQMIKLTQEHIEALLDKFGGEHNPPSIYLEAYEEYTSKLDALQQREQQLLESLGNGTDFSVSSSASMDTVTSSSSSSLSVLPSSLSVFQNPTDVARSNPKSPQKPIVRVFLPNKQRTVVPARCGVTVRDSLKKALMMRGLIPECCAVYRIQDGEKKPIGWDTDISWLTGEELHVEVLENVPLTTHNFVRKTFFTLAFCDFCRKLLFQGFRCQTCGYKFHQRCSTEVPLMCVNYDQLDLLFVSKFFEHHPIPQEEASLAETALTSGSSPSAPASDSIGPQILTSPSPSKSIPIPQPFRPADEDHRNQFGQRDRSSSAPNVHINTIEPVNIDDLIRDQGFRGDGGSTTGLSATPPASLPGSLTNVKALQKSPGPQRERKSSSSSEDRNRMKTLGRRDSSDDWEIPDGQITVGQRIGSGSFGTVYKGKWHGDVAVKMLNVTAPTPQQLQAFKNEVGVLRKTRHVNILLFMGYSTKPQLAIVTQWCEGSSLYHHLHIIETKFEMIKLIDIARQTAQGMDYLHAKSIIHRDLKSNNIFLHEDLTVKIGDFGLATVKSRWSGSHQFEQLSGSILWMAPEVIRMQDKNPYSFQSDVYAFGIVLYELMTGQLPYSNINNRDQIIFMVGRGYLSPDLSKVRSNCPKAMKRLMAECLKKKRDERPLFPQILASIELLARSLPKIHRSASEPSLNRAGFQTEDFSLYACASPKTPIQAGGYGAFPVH
Excerpt: (§1) We assessed the selectivity of members of this scaffold using the KINOMEscan methodology across a near comprehensive panel of 442 kinases [[18,27]].

panel of 442 kinases [2] = target: T2, panel of 442 kinases (Homo sapiens, UniProt Q8IWQ3)
T2 construct: purchased KINOMEscan
T2 sequence (Q8IWQ3 1-736): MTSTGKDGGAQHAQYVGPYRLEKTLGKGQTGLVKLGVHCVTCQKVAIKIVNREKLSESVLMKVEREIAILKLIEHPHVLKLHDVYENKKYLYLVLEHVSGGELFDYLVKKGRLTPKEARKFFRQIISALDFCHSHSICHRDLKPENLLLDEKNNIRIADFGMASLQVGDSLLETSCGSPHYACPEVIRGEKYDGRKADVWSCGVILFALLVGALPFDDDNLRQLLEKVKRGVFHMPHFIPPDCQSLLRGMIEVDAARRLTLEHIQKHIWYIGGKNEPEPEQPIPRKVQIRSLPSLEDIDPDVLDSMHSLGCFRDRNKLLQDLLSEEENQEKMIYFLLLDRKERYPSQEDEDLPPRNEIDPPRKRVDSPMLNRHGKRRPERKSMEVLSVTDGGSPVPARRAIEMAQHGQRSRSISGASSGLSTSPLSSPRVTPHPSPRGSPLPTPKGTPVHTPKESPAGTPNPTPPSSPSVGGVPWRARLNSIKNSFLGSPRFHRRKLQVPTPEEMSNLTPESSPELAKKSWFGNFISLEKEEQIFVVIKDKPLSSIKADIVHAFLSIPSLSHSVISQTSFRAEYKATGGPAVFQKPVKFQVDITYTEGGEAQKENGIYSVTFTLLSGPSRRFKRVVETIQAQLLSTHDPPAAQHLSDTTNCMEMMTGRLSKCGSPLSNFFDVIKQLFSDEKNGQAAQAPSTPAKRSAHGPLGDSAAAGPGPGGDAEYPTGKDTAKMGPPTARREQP
Excerpt: as §1

panel of 442 kinases [3] = target: T3, panel of 442 kinases (Homo sapiens, UniProt P45984)
T3 construct: purchased KINOMEscan
T3 sequence (P45984 whole entry): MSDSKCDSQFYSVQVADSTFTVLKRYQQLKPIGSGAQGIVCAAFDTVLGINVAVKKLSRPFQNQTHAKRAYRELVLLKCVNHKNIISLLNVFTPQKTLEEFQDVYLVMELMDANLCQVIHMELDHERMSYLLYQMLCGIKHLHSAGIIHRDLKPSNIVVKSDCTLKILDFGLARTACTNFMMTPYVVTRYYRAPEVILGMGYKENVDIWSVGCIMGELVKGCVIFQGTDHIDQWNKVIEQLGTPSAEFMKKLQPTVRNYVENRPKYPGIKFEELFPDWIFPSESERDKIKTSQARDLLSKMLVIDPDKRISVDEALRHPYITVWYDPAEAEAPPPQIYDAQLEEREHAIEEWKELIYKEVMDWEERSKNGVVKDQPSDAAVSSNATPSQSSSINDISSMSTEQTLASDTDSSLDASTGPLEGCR
Excerpt: as §1

SMILES	KINOMEscan: BRAF (panel of 442 kinases [1])	KINOMEscan: BRSK2 (panel of 442 kinases [2])	KINOMEscan: JNK2 (panel of 442 kinases [3])
CCOc1cc(C(=O)N2CCC(N3CCN(C)CC3)CC2)ccc1Nc1ncc2c(n1)N(C1CCCC1)c1ccccc1C(=O)N2C [Compound 26]	90	92	63
COc1cc(C(=O)N2CCC(N3CCN(C)CC3)CC2)ccc1Nc1ncc2c(n1)N(C1CCCC1)c1ccccc1C(=O)N2C [Compound 25, 11-cyclopentyl-2-((2-methoxy-4-(4-(4-methylpiperazin-1-yl)piperidine-1-carbonyl)phenyl)amino)-5-methyl-5H-benzo[e]pyrimido[5,4-b][1,4]diazepin-6(11H)-one]	100	80	44
COc1cc(C(=O)N2CCC(N3CCN(C)CC3)CC2)ccc1Nc1ncc2c(n1)N1CCc3cccc(c31)C(=O)N2C [Compound 24]		81	42
COc1cc(C(=O)N2CCC(N3CCN(C)CC3)CC2)ccc1Nc1ncc2c(n1)N(C)c1ccccc1C(=O)N2C [15 (LRRK2-IN-1)]	81	64	94

Reference: paper PMC3914206
